Measurements taken from the supplement of paper PMC8671470.

Tests used:
Settings in all cases: 72 h
[1] = test system: HL-60; test: area under dose-response curve (viability, 1 nM-10 uM) (fraction (0-1)); higher = more sensitive
Method in brief: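 In 384-well plates, the full library was rescreened in duplicate on HL-60 cells in RPMI 1640 with 10% FBS, at 1–10,000 nM in five tenfold concentrations, for 72 h at 37 °C, 5% CO2. Each run also held DMSO or 100 nM of one of three metabolic inhibitors. Viability was measured by CellTiter-Glo and normalised to DMSO wells and to wells with proteasome inhibitor, present at 10 μM. Any area under the curve comes from four-parameter log-logistic fitting with drc and PharmacoGx.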

[2] = test system: myeloid leukemia patient primary cells Pat.14; test: cell viability (% survival relative to DMSO control); higher = less cytotoxic
Method in brief: (§1)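 Thawed, Ficoll-purified mononuclear cells from AML or CML patients in RPMI 1640 with 10% FBS were seeded at 10,000 cells/well on 384-well plates pre-printed with 70 compounds at five tenfold concentrations, 1–10,000 nM, in duplicate, for 72 h. Viability was read by CellTiter-Glo and normalised to DMSO and 10 μM proteasome-inhibitor wells. Where given, area under the curve came from four-parameter log-logistic fits (drc, PharmacoGx R packages).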

[3] = test system: myeloid leukemia patient primary cells Pat.10; test: as above
Method in brief: as §1

[4] = test system: myeloid leukemia patient primary cells Pat.8; test: as above
Method in brief: as §1

[5] = test system: myeloid leukemia patient primary cells Pat.2; test: as above
Method in brief: as §1

[6] = test system: myeloid leukemia patient primary cells Pat.7; test: area under dose-response curve (viability, 1 nM-10 uM) (fraction (0-1)); higher = more sensitive
Method: (§2)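 AUC (0–1, higher = more sensitive) of the 5-point dose–response (1 nM–10 µM, 72 h, CellTiter-Glo) in primary AML/CML patient mononuclear cells. 0.030103 is the floor for inactive compounds.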

[7] = test system: myeloid leukemia patient primary cells Pat.15; test: as above
Method: as §2

[8] = test system: myeloid leukemia patient primary cells Pat.3; test: as above
Method: as §2

[9] = test system: myeloid leukemia patient primary cells Pat.13; test: as above
Method: as §2

[10] = test system: myeloid leukemia patient primary cells Pat.5; test: as above
Method: as §2

[11] = test system: myeloid leukemia patient primary cells Pat.1; test: as above
Method: as §2

[12] = test system: myeloid leukemia patient primary cells Pat.9; test: as above
Method: as §2

[13] = test system: myeloid leukemia patient primary cells Pat.14; test: as above
Method: as §2

[14] = test system: myeloid leukemia patient primary cells Pat.10; test: as above
Method: as §2

[15] = test system: myeloid leukemia patient primary cells Pat.11; test: as above
Method: as §2

[16] = test system: myeloid leukemia patient primary cells Pat.8; test: as above
Method: as §2

[17] = test system: myeloid leukemia patient primary cells Pat.2; test: as above
Method: as §2

[18] = test system: myeloid leukemia patient primary cells Pat.6; test: as above
Method: as §2

[19] = test system: myeloid leukemia patient primary cells Pat.4; test: as above
Method: as §2

[20] = test system: myeloid leukemia patient primary cells Pat.12; test: as above
Method: as §2

[21] = test system: LAMA-84; test: cell viability (% survival relative to DMSO control, bortezomib = 0%); higher = less cytotoxic
Method in brief: (§3)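 Fifteen myeloid leukaemia cell lines were exposed to compounds at 1, 10, 100, 1000 or 10000 nM in 384-well plates for 72 h at 37 °C and 5% CO2. Viability was read by CellTiter-Glo luminescence and normalised, with vehicle as 100% and a 10 µM positive control as 0%. Values are percent survival averaged over duplicates.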

[22] = test system: BV-173; test: as above
Method in brief: as §3

[23] = test system: Mono-Mac-6; test: as above
Method in brief: as §3

Cc1cc2c(C(C)C)c(O)c(O)c(C=O)c2c(O)c1-c1c(C)cc2c(C(C)C)c(O)c(O)c(C=O)c2c1O [Gossypol]
Settings | area under dose-response curve, co-treatment: AZD3965 100 nM | area under dose-response curve, co-treatment: DMSO vehicle | area under dose-response curve, co-treatment: GSK2194069 100 nM | area under dose-response curve, co-treatment: pictilisib 100 nM | cell viability, 1 nM [%] | cell viability, 10 nM [%] | cell viability, 100 nM [%] | cell viability, 1000 nM [%] | cell viability, 10000 nM [%]
[1] | 0.123 | 0.124 | 0.154 | 0.145 | – | – | – | – | –
[2] | – | – | – | – | > 100 | 42.9 | 69.1 | 0.583 | 63.3
[3] | – | – | – | – | 89.2 | 41.6 | 43.3 | 2.16 | 89.9
[4] | – | – | – | – | 82.2 | 89.7 | 89.9 | 84.7 | 6.5
[5] | – | – | – | – | 96.6 | 92.2 | 93 | 80 | 34.6
[21] | – | – | – | – | 95.2 | 106 | 104 | 103 | 0.378
[22] | – | – | – | – | 95.8 | 90 | 98.8 | 68.3 | 0.788
[23] | – | – | – | – | 94.6 | 85.5 | 112 | 91.8 | 0.586

Settings | area under dose-response curve
[6] | 0.476
[7] | 0.0654
[8] | 0.428
[9] | 0.107
[10] | 0.712
[11] | 0.135
[12] | 0.803
[13] | 0.386
[14] | 0.641
[15] | 0.135
[16] | 0.123
[17] | 0.112
[18] | 0.0898
[19] | 0.117
[20] | 0.0353

CC(=O)Nc1nc(C)c(-c2ccc(Cl)c(S(=O)(=O)NCCO)c2)s1 [PIK93]
Settings | area under dose-response curve, co-treatment: AZD3965 100 nM | area under dose-response curve, co-treatment: DMSO vehicle | area under dose-response curve, co-treatment: GSK2194069 100 nM | area under dose-response curve, co-treatment: pictilisib 100 nM | cell viability, 1 nM [%] | cell viability, 10 nM [%] | cell viability, 100 nM [%] | cell viability, 1000 nM [%] | cell viability, 10000 nM [%]
[1] | 0.172 | 0.135 | 0.154 | 0.181 | – | – | – | – | –
[2] | – | – | – | – | 72.6 | 2.07 | 52.8 | 63.9 | 38.6
[3] | – | – | – | – | 65.9 | 22.6 | 56.6 | 60.8 | 16.8
[4] | – | – | – | – | 86.5 | 81.9 | 87.9 | 64.2 | 48.8
[5] | – | – | – | – | 94.4 | 44.8 | 95.8 | 65.5 | 47.8
[21] | – | – | – | – | 113 | 95.3 | 102 | 90.6 | 55.8
[22] | – | – | – | – | 119 | 103 | 95.8 | 45.6 | 9.29
[23] | – | – | – | – | 95.8 | 90.9 | 85.5 | 52.4 | 17.6

Settings | area under dose-response curve
[6] | 0.16
[7] | 0.417
[8] | 0.545
[9] | 0.214
[10] | 0.907
[11] | 0.365
[12] | 0.82
[13] | 0.139
[14] | 0.728
[15] | 0.204
[16] | 0.0853
[17] | 0.0748
[18] | 0.0757
[19] | 0.401
[20] | < 0.0301

CC(C)(C)c1ccc(S(=O)(=O)NCc2ccc(C(=O)Nc3cccnc3)cc2)cc1 [STF-31]
Settings | area under dose-response curve, co-treatment: AZD3965 100 nM | area under dose-response curve, co-treatment: DMSO vehicle | area under dose-response curve, co-treatment: GSK2194069 100 nM | area under dose-response curve, co-treatment: pictilisib 100 nM | cell viability, 1 nM [%] | cell viability, 10 nM [%] | cell viability, 100 nM [%] | cell viability, 1000 nM [%] | cell viability, 10000 nM [%]
[1] | 0.328 | 0.342 | 0.362 | 0.324 | – | – | – | – | –
[2] | – | – | – | – | 74.9 | 62.1 | 9.36 | 1.38 | < 0
[3] | – | – | – | – | 56.6 | 35 | 64.9 | < 0 | 4.94
[4] | – | – | – | – | 97.5 | 87 | 63 | 6.59 | 9.06
[5] | – | – | – | – | 98.4 | 96.8 | 84.9 | 13.2 | 11.4
[21] | – | – | – | – | 97.5 | 94.6 | 68.8 | 6.82 | 2.61
[22] | – | – | – | – | 96.3 | 111 | 3.51 | 0.776 | 0.807
[23] | – | – | – | – | 107 | 114 | 105 | 36.9 | 31

Settings | area under dose-response curve
[6] | 0.66
[7] | 0.375
[8] | 0.745
[9] | 0.358
[10] | 0.896
[11] | 0.267
[12] | 0.8
[13] | 0.653
[14] | 0.449
[15] | 0.368
[16] | 0.433
[17] | 0.367
[18] | 0.357
[19] | 0.567
[20] | 0.366

CO[C@H]1C[C@@H]2CC[C@@H](C)[C@@](O)(O2)C(=O)C(=O)N2CCCC[C@H]2C(=O)O[C@H]([C@H](C)C[C@@H]2CC[C@@H](OC(=O)C(C)(CO)CO)[C@H](OC)C2)CC(=O)[C@H](C)/C=C(\C)[C@@H](O)[C@@H](OC)C(=O)[C@H](C)C[C@H](C)/C=C/C=C/C=C/1C [Temsirolimus]
Settings | area under dose-response curve, co-treatment: AZD3965 100 nM | area under dose-response curve, co-treatment: DMSO vehicle | area under dose-response curve, co-treatment: GSK2194069 100 nM | area under dose-response curve, co-treatment: pictilisib 100 nM | cell viability, 1 nM [%] | cell viability, 10 nM [%] | cell viability, 100 nM [%] | cell viability, 1000 nM [%] | cell viability, 10000 nM [%]
[1] | < 0.0301 | < 0.0301 | < 0.0301 | < 0.0301 | – | – | – | – | –
[2] | – | – | – | – | 73.7 | 58.7 | 48.6 | 71.6 | 5.69
[3] | – | – | – | – | 47.2 | 40.6 | 42.5 | 78.8 | 4.58
[4] | – | – | – | – | 83.3 | 55.6 | 78.2 | 88.4 | 55.5
[5] | – | – | – | – | 79.1 | 69 | 69.6 | 80.6 | 63
[21] | – | – | – | – | 90.6 | 63.2 | 65 | 49.2 | 40.9
[22] | – | – | – | – | 96.5 | 54.8 | 57.6 | 45.7 | 39.5
[23] | – | – | – | – | 99.2 | 49.4 | 48 | 35.1 | 38

Settings | area under dose-response curve
[6] | 0.146
[7] | 0.584
[8] | 0.123
[9] | < 0.0301
[10] | 0.798
[11] | 0.0628
[12] | 0.608
[13] | 0.142
[14] | 0.123
[15] | < 0.0301
[16] | < 0.0301
[17] | < 0.0301
[18] | < 0.0301
[19] | 0.206
[20] | < 0.0301
